Converted amounts (≈) assume the structure as drawn. “And” between values parts separate entries of the source, which are not always exact repeats. Equal entries are not always repeated. Where two headings read alike, the source gives them in different places.
Tests used:
[1] = Tegavivint solubility in water and organic solvents; format: physicochemical
Description: In organic solvents, tegavivint has solubilities as shown: DMSO (334 μg/mL), ethanol (260 μg/mL), methanol (299 μg/mL), acetone (1 mcg/mL), dichloromethane:ethanol (1:4) (1 mg/mL).

[2] = Pharmacokinetics after slow intravenous bolus in female Sprague-Dawley rats; format: in vivo; conditions: 10 mg/kg slow intravenous bolus; for half-life: iv, 10 mg/kg
Description: The objective of this study was to investigate the pharmacokinetics of tegavivint following a single intravenous slow bolus administration of tegavivint to female Sprague-Dawley rats.
Dose Preparation and Administration The stock formulation (25 mg/mL) was provided. Accurately, 600 μL of dose formulation (Stock, 25 mg/mL) was transferred to labeled glass container. To this, 2.4 mL of 5% dextrose solution was added, vortex mixed and sonicated to obtain homogeneous suspension of 5 mg/mL strength. Animals were dosed underfed condition. Rats were administered a single dose of 10 mg/kg of tegavivint by slow intravenous bolus (over 1.5 min) jugular vein catheter using 1 mL BD syringe guided with 23 G blunt needle at a dose volume of 2 mL/kg. Syringes used for dosing were weighed before and after dose administration in order to calculate the actual dose administered.
Sample Collection and Processing Blood samples were collected at 0.083, 0.25, 0.5, 1, 2, 4, 6, 8, 12 and 24 h post dose. At each time point, approximately, 0.25 mL of blood was withdrawn from jugular vein of the cannulated rat and transferred to a labeled microfuge tube containing 200 mM K2EDTA (20 μL per mL of blood). Following sampling, equal volume of heparinized saline was replaced into the catheter. The blood samples were kept on wet ice at all times immediately after collection and the plasma was separated by centrifugation at 5000 g for 5 minutes at 4±2° C. The plasma samples were separated within 1 h of scheduled time and stored below −60° C. until bioanalysis.
Bioanalysis Bioanalysis was performed using fit-for-purpose LC-MS/MS method for the quantification of BC2059 in rat plasma samples. The calibration curve (CC) for the method consisted of at least 6 non-zero calibration standards along with a blank and blank with internal standard samples with a lower limit of quantification (LLOQ) of 0.050 μg/mL. Study samples were analyzed along with three sets of quality control samples (9 QC samples; low, medium and high QC samples in triplicate).
Pharmacokinetic Data Analysis The pharmacokinetic parameters for tegavivint were calculated using the non-compartmental analysis tool ([…]) of the validated Phoenix® WinNonlin® software (version 6.3). The area under the concentration time curve (AUClast and AUCinf) was calculated by linear trapezoidal rule. The CO (back extrapolated concentration at time zero) was estimated following intravenous bolus dose administration by back-extrapolating the first two concentration values. The total plasma clearance (CL) and volume of distribution at steady-state (Vss) were estimated values. The elimination rate constant value (k) was calculated by linear regression of the log-linear terminal phase of the concentration-time profile using at least 3 declining concentrations in terminal phase with a correlation coefficient of >0.8. The terminal half-life value (T½) was calculated using the equation 0.693/k. The alpha and beta half-lifes were calculated and reported.

[3] = test system: bleomycin-induced idiopathic pulmonary fibrosis (IPF); assay: Bleomycin-induced IPF mouse model: body weight; format: in vivo, C57BL/6 male mice
Description: (§1) The purpose of this experiment was to investigate tegavivint nanosuspension in a mouse model of bleomycin-induced idiopathic pulmonary fibrosis (IPF). Test articles were as follows:
Tegavivint (BC2059) in a nano-milled suspension 25 mg/mL in 0.625% poloxamer 188 and 10% sorbitol. The test article was refrigerated at about 4° C.
Nebulizing equipment was Altera ultrasonic eRapid machine nebulizer (model #678G1002).
Animals were 8-12 week old C57BL/6 male mice (Jackson Lab, Bar Harbor, ME).
(§2) Murine model of pulmonary fibrosis was induced by intratracheally (IT) injected bleomycin (APP Pharmaceuticals, Schaumburg, IL). One dose of 0.025 U bleomycin dissolved in 50 microliters of Saline 0.9%, or PBS as control was administered to each animal on day 0.
(§3) Tegavivint nanosuspension was applied to Group 3 in the form of aerosols, through the method of whole body exposure. The mice were placed inside a plastic box. This box was sealed and connected by one of its sides to the outlet of the nebulizer device, and on the other side to a system of closed water. The whole procedure was carried out inside the fume hood of the animal room. In each treatment session, 5 ml of 25 mg/ml Tegavivint (125 mg) was nebulized over 15 min to each group of 4-5 mice in the chamber. […]
The body weight of animals was recorded on Days 0, 5, 8, 12, 16, 19, and 21.

[4] = test system: bleomycin-induced idiopathic pulmonary fibrosis (IPF); assay: Bleomycin-induced IPF mouse model: lung mechanics (FlexiVent compliance); format: in vivo, C57BL/6 male mice
Description: as §1, §2
as §3, with “chamber. To increase exposure of the mice to the aerosol, Tegavivint that precipitated in the aerosol chamber was collected with a syringe and re-nebulized a second and a third time. Mice were nebulized twice a day between day 5 and day 21 after administration of bleomycin. Group 1 and 2 received nebulized vehicle 5 ml in the same manner.” for “chamber.”

[5] = female, Sprague-Dawley, plasma, rat

solubility ([1]; DMSO, organic solvent or mixture, read-out: solubility in DMSO): 334 µg/mL (≈ 567 µM)
solubility ([1]; acetone, organic solvent or mixture, read-out: solubility in acetone): 1 µg/mL (≈ 1.7 µM)
solubility ([1]; dichloromethane:ethanol (1:4), organic solvent or mixture, read-out: solubility in dichloromethane:ethanol (1:4)): 1000 µg/mL (≈ 1700 µM)
solubility ([1]; ethanol, organic solvent or mixture, read-out: solubility in ethanol): 260 µg/mL (≈ 442 µM)
solubility ([1]; methanol, organic solvent or mixture, read-out: solubility in methanol): 299 µg/mL (≈ 508 µM)
solubility ([1]; water, aqueous buffer, across the pH range of 2 to 10, read-out: solubility in water): < 0.25 µg/mL
CL lower than normal rat liver blood flow of 55 mL/min/kg [2]: about 5.5 fold
AUC(0-inf) [2, 5]: 17200 ng·h/mL
AUC(0-t) [2, 5]: 14600 ng·h/mL
MRT last [2, 5]: 4.07 h
C0 ([2]; female, Sprague-Dawley, plasma, rat, back extrapolated): 62.2 µg/mL
clearance ([2]; female, Sprague-Dawley, plasma, rat, mean, n=4): 9.92 mL/min/kg
Vd ([2]; female, Sprague-Dawley, plasma, rat, mean, n=4, read-out: Vss): 6.54 L/kg
half-life ([2]; female, Sprague-Dawley, rat, plasma, regression points 0.5, 1 and 2 h, read-out: T1/2 Alpha (converted)): 0.546 h
half-life ([2]; female, Sprague-Dawley, rat, plasma, regression points 6, 8, 12 and 24 h, read-out: T1/2 Beta (converted)): 13.8 h
Vss greater than normal body water of 0.7 L/kg ([2]; rat): ~9.34 fold
SMILES: C[C@@H]1C[C@H](C)CN(S(=O)(=O)c2ccc3c(c2)C(=NO)c2cc(S(=O)(=O)N4C[C@H](C)C[C@H](C)C4)ccc2C3=NO)C1 [BC2059, tegavivint]
effect on body weight loss caused by bleomycin ([3]; Group 3, inhaled): reversed the body weight loss
Change in body weight (%) ([3]; Group 3: IT bleomycin Day 0, 5 ml of 25 mg/ml tegavivint aerosol BID Day 5-21, individual animals): −2.83% and 5.2% and 7.3% (2×) and 7.9%
effect on lung compliance after bleomycin injury ([4]; Group 3, inhaled): reversed the compliance values to near those of the sham-treated controls
Compliance ([4]; Group 3: IT bleomycin Day 0, 5 ml of 25 mg/ml tegavivint aerosol BID Day 5-21, Day 21, individual animals): 0.05515 ml/cm H2O and 0.05604 ml/cm H2O and 0.06762 ml/cm H2O and 0.0543 ml/cm H2O and 0.0561 ml/cm H2O

Source: US12246010B2, “Formulations of tegavivint and related compounds” (Iterion Therapeutics, Inc., priority 2018, dated 2025)
